Source: patent US20240317708A1, “INHIBITORS OF TRANSGLUTAMINASES” (ZEDIRA GMBH, priority 2021, published 2024)

What was measured:
[1] = Log D shake flask method (octanol / PBS pH 7.4, HPLC); type: physicochemical; settings: octanol/phosphate-buffered saline (PBS); octanol / PBS pH 7.4, shake flask
Experimental: In order to classify the inventive compounds according to their lipophilicity, Log D values (distribution coefficient) were determined by means of the well-established shake flask method, measuring the partition of a compound between an octanol and phosphate-buffered saline (PBS, pH 7.4) by HPLC.

[2] = molecular target: T1, recombinant human transglutaminase 2 (Homo sapiens, UniProt P21980); assay: Transglutaminase assay (dansylcadaverine incorporation into dimethylcasein, DCC-assay); type: biochemical; settings: for IC50: recombinant human TG2 10 nM, dansylcadaverine/dimethylcasein, 37° C.
T1 construct: purchased Zedira T022
T1 sequence (P21980 1-687): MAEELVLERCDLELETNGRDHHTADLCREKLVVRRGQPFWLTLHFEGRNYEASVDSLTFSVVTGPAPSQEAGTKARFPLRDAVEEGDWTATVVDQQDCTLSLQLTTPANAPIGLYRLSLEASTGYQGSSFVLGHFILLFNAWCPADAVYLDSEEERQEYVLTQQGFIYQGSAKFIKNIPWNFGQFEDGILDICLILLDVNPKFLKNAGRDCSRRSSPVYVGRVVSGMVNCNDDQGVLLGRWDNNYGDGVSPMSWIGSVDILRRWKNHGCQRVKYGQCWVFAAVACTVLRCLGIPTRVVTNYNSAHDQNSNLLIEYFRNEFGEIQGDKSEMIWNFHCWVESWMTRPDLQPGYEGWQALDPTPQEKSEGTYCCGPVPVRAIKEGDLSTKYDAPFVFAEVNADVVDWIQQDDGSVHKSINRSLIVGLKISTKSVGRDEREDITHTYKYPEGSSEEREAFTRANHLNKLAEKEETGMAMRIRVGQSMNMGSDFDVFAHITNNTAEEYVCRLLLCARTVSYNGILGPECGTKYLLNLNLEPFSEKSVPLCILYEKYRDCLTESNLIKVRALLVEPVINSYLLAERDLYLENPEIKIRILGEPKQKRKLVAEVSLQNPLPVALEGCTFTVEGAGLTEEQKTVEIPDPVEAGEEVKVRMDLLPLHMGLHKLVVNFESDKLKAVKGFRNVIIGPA
Experimental: For the determination of potency of inhibitors against tissue transglutaminase, the incorporation of dansylcadaverine into dimethylcasein (Zedira product T036, Lorand et al., Anal Biochem, 1971, 44:221-31) was measured using recombinant human transglutaminase 2 (Zedira Product T022).
The tissue transglutaminase is diluted in buffer (50 mM Tris-HCl, 7.5 mM CaCl2, 150 mM NaCl, pH=7.4). The final concentration of TG2 in the assay is 10 nM.
A 10 mM inhibitor stock solution is prepared in DMSO, and from this a serial 1:2-fold dilution series is prepared also in DMSO. Each of the initial dilutions is subsequently diluted 1:50-fold with buffer (50 mM Tris-HCl, 7.5 mM CaCl2, 150 mM NaCl, pH=7.4) to yield the final working dilutions containing 2% (v/v) DMSO.
15 μl of inhibitor working dilution are added per well of a 96 well microtiter plate. As control, 15 μl of a 2% (v/v) DMSO solution prepared using the buffer mentioned above are added per well.
Immediately before starting the assay, 600 μl transglutaminase working solution are added to 11.4 ml assay buffer (50 mM Tris-HCl, 10 mM CaCl2, 10 mM glutathione, 2.5% glycerol, 16.7 μM dansylcadaverine, 4 μM N,N-dimethylcasein, 200 mM NaCl, pH=8.0). 285 μl of this reaction mix are added per well containing the inhibitor.
Increase in fluorescence is measured using λex=330 nm and λem=500 nm at 37° C. for 30 min. A slope of the increase in fluorescence between 20 and 30 min is calculated for determination of the IC50 value (inhibitor concentration at which 50% of the initial activity is blocked).
Analysis of enzymatic activity is performed by calculation of the slope of an increase in fluorescence intensity. IC50 values are calculated by plotting the enzymatic activity (as percentage from control containing 2% DMSO instead of inhibitor) against the inhibitor concentration. IC50 is defined as the inhibitor concentration blocking 50% of initial enzyme activity.

[3] = Caco-2 permeability assay (CacoReady kit); type: in vitro ADME; settings: human
Experimental: Permeability coefficients (Papp values) were obtained from Caco-2 barrier studies predicting oral/intestinal bioavailability of the tested compounds. The assays were performed by using CacoReady™ ready-to-use kits from ReadyCell according to the manufacturers protocol.

SMILES | logD [1] | IC50 [2] [nM] | Papp [3] [×10⁻⁶ cm/s] | times less potent in comparison to compound III-83 ([2]; IC50 ratio vs III-83, Table 1) | fold more potent compared to Ref. 3 ([2]; DCC-assay IC50 ratio vs Ref. 3 (A8)) [fold]
COC(=O)/C=C/CC[C@H](NC(=O)c1cncnc1C)C(=O)Nc1cccn(CC(=O)NC2C3CC4CC2CC(C(=O)O)(C4)C3)c1=O (stereo partly drawn) [III-136, (S,E)-methyl 7-(1-(2-(5-carboxy-2-aminoadamantane)-2-oxoethyl)-2-oxo-1,2-dihydropyridin-3-ylamino)-6-(4-methylpyrimidine-5-carboxamido)-7-oxohept-2-enoate] | < 1 | 250 to 1500 | < 1 | – | –
COC(=O)/C=C/CC[C@H](NC(=O)c1cnnn1C)C(=O)Nc1cccn(CC(=O)N[C@@H]2C[C@H]3CC[C@@H]2C3)c1=O [III-96, (S,E)-methyl 7-(1-(2-((1R,2R,4S)-bicyclo[2.2.1]heptan-2-ylamino)-2-oxoethyl)-2-oxo-1,2-dihydropyridin-3-ylamino)-6-(1-methyl-1H-1,2,3-triazole-5-carboxamido)-7-oxohept-2-enoate] | < 1 | < 25 | 1 to 10 | – | –
COC(=O)/C=C/CC[C@H](NC(=O)c1oc2ccccc2c1C)C(=O)Nc1cccn(CC(=O)NC23CC4CC5C2C[C@@H]2C[C@H]5C(C4)[C@H]3C2)c1=O [III-73, (S,E)-methyl 7-(1-(2-(diamantane-1-amino)-2-oxoethyl)-2-oxo-1,2-dihydropyridin-3-ylamino)-6-(3-methylbenzofuran-2-carboxamido)-7-oxohept-2-enoate] | 3 to 5 | < 25 | 1 to 10 | – | –
COC(=O)/C=C/CC[C@H](NC(=O)c1nn[nH]n1)C(=O)Nc1cccn(CC(=O)NC2C3CC4CC(C3)CC2C4)c1=O (stereo partly drawn) [III-23, (S,E)-methyl 7-(1-(2-(2-adamantylamino)-2-oxoethyl)-2-oxo-1,2-dihydropyridin-3-ylamino)-7-oxo-6-(2H-tetrazole-5-carboxamido)hept-2-enoate] | 1 to 3 | 25 to 250 | 1 to 10 | – | –
COC(=O)/C=C/CC[C@H](NC(=O)c1cncn1C)C(=O)Nc1cccn(CC(=O)NC23CC4(C)CC(C)(CC(C)(C4)C2)C3)c1=O [III-91, (S,E)-methyl 7-(1-(2-(3,5,7-trimethyl-1-adamantylamino)-2-oxoethyl)-2-oxo-1,2-dihydropyridin-3-ylamino)-6-(1-methyl-1H-imidazole-5-carboxamido)-7-oxohept-2-enoate] | 3 to 5 | < 25 | 1 to 10 | – | –
COC(=O)/C=C/CC[C@H](NC(=O)c1cc(Cl)c(Cl)s1)C(=O)Nc1cccn(CC(=O)NC2C3CC4CC(C3)CC2C4)c1=O (stereo partly drawn) [III-20, (S,E)-methyl 6-(4,5-dichlorothiophene-2-carboxamido)-7-(1-(2-(2-adamantylamino)-2-oxoethyl)-2-oxo-1,2-dihydropyridin-3-ylamino)-7-oxohept-2-enoate] | 3 to 5 | < 25 | 1 to 10 | – | –
CCCCCNC(=O)/C=C/CC[C@H](NC(=O)c1cn2ccsc2n1)C(=O)Nc1cccn(CC(=O)NC23CC(C2)C3)c1=O [III-143, (S,E)-N7-(1-(2-(bicyclo[1.1.1]pentan-1-ylamino)-2-oxoethyl)-2-oxo-1,2-dihydropyridin-3-yl)-6-(imidazo[2,1-b]thiazole-6-carboxamido)-N1-pentylhept-2-enediamide] | 1 to 3 | 250 to 1500 | 1 to 10 | – | –
COC(=O)/C=C/CC[C@H](NC(=O)c1csc(Br)c1)C(=O)Nc1cccn(CC(=O)NC2C3CC4CC(C3)CC2C4)c1=O (stereo partly drawn) [III-17, (S,E)-methyl 6-(5-bromothiophene-3-carboxamido)-7-(1-(2-(2-adamantylamino)-2-oxoethyl)-2-oxo-1,2-dihydropyridin-3-ylamino)-7-oxohept-2-enoate] | 3 to 5 | < 25 | < 1 | – | –
COC(=O)/C=C/CC[C@H](NC(=O)c1ccnnc1)C(=O)Nc1cccn(CC(=O)NC2C3CC4CC(C3)CC2C4)c1=O (stereo partly drawn) [III-85, (S,E)-methyl 7-(1-(2-(2-adamantylamino)-2-oxoethyl)-2-oxo-1,2-dihydropyridin-3-ylamino)-7-oxo-6-(pyridazine-4-carboxamido)hept-2-enoate] | 1 to 3 | < 25 | < 1 | – | –
COC(=O)/C=C/CC[C@H](NC(=O)c1cc(Br)c(Br)s1)C(=O)Nc1cccn(CC(=O)NC2C3CC4CC(C3)CC2C4)c1=O (stereo partly drawn) [III-19, (S,E)-methyl 6-(4,5-dibromothiophene-2-carboxamido)-7-(1-(2-(2-adamantylamino)-2-oxoethyl)-2-oxo-1,2-dihydropyridin-3-ylamino)-7-oxohept-2-enoate] | 3 to 5 | < 25 | 1 to 10 | – | –
Cc1oc(Br)cc1C(=O)N[C@@H](CC/C=C/C(=O)Nc1ccccc1)C(=O)Nc1cccn(CC(=O)NC23CC(C2)C3)c1=O [III-152, (S,E)-N7-(1-(2-(bicyclo[1.1.1]pentan-1-ylamino)-2-oxoethyl)-2-oxo-1,2-dihydropyridin-3-yl)-6-(5-bromo-2-methylfuran-3-carboxamido)-N1-phenylhept-2-enediamide] | 1 to 3 | 25 to 250 | 1 to 10 | – | –
COC(=O)/C=C/CC[C@H](NC(=O)c1oc2ccccc2c1C)C(=O)Nc1cccn(CC(=O)NC2(C#N)C3CC4CC(C3)CC2C4)c1=O (stereo partly drawn) [III-43, (S,E)-methyl 7-(1-(2-(2-carbonitrileadamantane-2-amino)-2-oxoethyl)-2-oxo-1,2-dihydropyridin-3-ylamino)-6-(3-methylbenzofuran-2-carboxamido)-7-oxohept-2-enoate] | 3 to 5 | 25 to 250 | < 1 | – | –
COC(=O)/C=C/CC[C@H](NC(=O)c1oc2ccccc2c1C)C(=O)Nc1cccn(CC(=O)NC[C@@H]2CC[C@H]3C[C@@H]2C3(C)C)c1=O [III-71, (S,E)-methyl 7-(1-(2-(((1S,2R,5S)-6,6-dimethylbicyclo[3.1.1]heptan-2-yl)methylamino)-2-oxoethyl)-2-oxo-1,2-dihydropyridin-3-ylamino)-6-(3-methylbenzofuran-2-carboxamido)-7-oxohept-2-enoate] | 3 to 5 | 25 to 250 | 1 to 10 | – | –
COC(=O)/C=C/CC[C@H](NC(=O)c1oc2ccccc2c1C)C(=O)Nc1cccn(CC(=O)NC2CC3C=CC2C3)c1=O (stereo partly drawn) [III-66, (S,E)-methyl 7-(1-(2-(bicyclo[2.2.1]hept-5-en-2-ylamino)-2-oxoethyl)-2-oxo-1,2-dihydropyridin-3-ylamino)-6-(3-methylbenzofuran-2-carboxamido)-7-oxohept-2-enoate] | 1 to 3 | 25 to 250 | 1 to 10 | – | –
COC(=O)/C=C/CC[C@H](NC(=O)c1cccnc1)C(=O)Nc1cccn(CC(=O)NCCc2ccccc2)c1=O [Ref. 5, reference compound] | 1 to 3 | 250 to 1500 | < 1 | more than 25 times | –
COC(=O)/C=C/CC[C@H](NC(=O)c1cn[nH]n1)C(=O)Nc1cccn(CC(=O)NC2C3CC4CC(C3)CC2C4)c1=O (stereo partly drawn) [III-102, (S,E)-methyl 7-(1-(2-(2-adamantylamino)-2-oxoethyl)-2-oxo-1,2-dihydropyridin-3-ylamino)-7-oxo-6-(1H-1,2,3-triazole-4-carboxamido)hept-2-enoate] | – | 25 to 250 | – | – | –
CCC(CC)CNC(=O)Cn1cccc(NC(=O)[C@H](CC/C=C/C(=O)OC)NC(=O)c2cncn2C)c1=O [Ref. 2, reference compound] | – | 25 to 250 | – | – | 80
